The values that follow come from PMC10620989, “Going beyond Binary: Rapid Identification of Protein–Protein Interaction Modulators Using a Multifragment Kinetic Target-Guided Synthesis Approach” (Journal of Medicinal Chemistry, 2023).

By IC50 is commonly meant the point on the concentration scale where inhibition reaches its midpoint. By inhibition is commonly meant the change of the read-out against control, counted positive when it falls.

Each structure is given as a SMILES string.

Experiment [1] addresses GST-tagged mouse Mcl-1-(152–309) (Mus musculus, UniProt P97287). The experiment can be described thus: Fluorescence polarization competitive binding assay, GST-Mcl-1 / FITC-Bim-BH3. To be noted: FP; for IC50: GST-Mcl-1 and fluorescein-labeled Bim BH3 peptide, read-out: IC50 on Mcl-1; for inhibition at 50 µM: compound at 50 µM.
For experiment [2], the target named is T1, Mcl-1 (Mus musculus, UniProt P97287). The experiment can be described thus: Multifragment KTGS screen against Mcl-1 (5 TA x 38 SZ per well), LC-MS/MS. The following applies: multifragment KTGS, 190 combinations per well, 10 μM Mcl-1, 20 μM each fragment, pH 7.4, 37 °C, 10 h; peak area with protein / without protein.
T1 sequence (P97287 whole entry, the tested form may be a part): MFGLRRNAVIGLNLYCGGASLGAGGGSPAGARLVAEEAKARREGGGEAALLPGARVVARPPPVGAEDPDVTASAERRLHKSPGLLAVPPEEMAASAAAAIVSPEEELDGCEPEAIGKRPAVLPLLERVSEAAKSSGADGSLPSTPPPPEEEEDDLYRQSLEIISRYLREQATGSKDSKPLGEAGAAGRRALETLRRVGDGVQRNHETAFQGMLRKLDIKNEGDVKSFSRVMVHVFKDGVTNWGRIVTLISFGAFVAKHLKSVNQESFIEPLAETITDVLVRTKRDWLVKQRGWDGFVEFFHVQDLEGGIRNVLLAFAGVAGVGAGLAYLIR
In experiment [3] the target is T1, Mcl-1. Briefly: Binary KTGS incubation (1 TA x 1 SZ) with Mcl-1, LC-MS/MS. The following applies: binary incubation mixtures with and without Mcl-1.

Sequence of GST-tagged mouse Mcl-1-(152–309) (P97287 152-309): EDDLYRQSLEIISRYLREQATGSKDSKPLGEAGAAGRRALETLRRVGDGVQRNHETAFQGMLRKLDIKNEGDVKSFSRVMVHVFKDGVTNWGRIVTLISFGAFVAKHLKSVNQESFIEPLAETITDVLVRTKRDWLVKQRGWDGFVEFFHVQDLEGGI

For `[N-]=[N+]=NS(=O)(=O)c1ccc(CN(CCSc2ccccc2)Cc2ccc(S(=O)(=O)NC(=O)c3ccc(CCc4ccccn4)cc3)cc2)cc1` [SZ9TA17, O=C(NS(C1=CC=C(CN(CC2=CC=C(S(=O)(N=[N+]=[N-])=O)C=C2)CCSC3=CC=CC=C3)C=C1)(=O)=O)C4=CC=C(CCC5=NC=CC=C5)C=C4], in experiment [1], the IC50 was 20.4 µM and the inhibition at 50 µM was over 99%. Besides, the “Amplification coefficient 5TA x 38SZ” value in experiment [2] is 22. In addition, the “Amplification coefficient 1TA x 1SZ” value in experiment [3] is 18.
For `Cn1cc(C(=O)C2CCCCC2)c2cc(C(=O)NS(=O)(=O)c3ccc(CN(CCSc4ccccc4)Cc4ccc5c(c4)OCO5)cc3)ccc21` [SZ31TA40, O=C(NS(C1=CC=C(CN(CCSC2=CC=CC=C2)CC3=CC(OCO4)=C4C=C3)C=C1)(=O)=O)C5=CC=C6C(C(C(C7CCCCC7)=O)=CN6C)=C5], in experiment [1], the inhibition at 50 µM was -52.4%. Further, the “Amplification coefficient 5TA x 38SZ” value in experiment [2] came out at 56. In addition, the “Amplification coefficient 1TA x 1SZ” value in experiment [3] is on record as 8.
The like results for `O=C(NS(=O)(=O)c1ccc(-c2ccc(Oc3ccccc3)cc2)cc1)c1ccc(CCc2ccccn2)cc1` [SZ35TA17, O=C(NS(C1=CC=C(C2=CC=C(OC3=CC=CC=C3)C=C2)C=C1)(=O)=O)C4=CC=C(CCC5=NC=CC=C5)C=C4] were, in that order, 89.2%, 9 and 9.
For the compound `NS(=O)(=O)c1ccc(CN(CCSc2ccccc2)Cc2ccc(S(=O)(=O)NC(=O)c3ccc(-c4ccccn4)cc3)cc2)cc1` [SZ10TA25, O=C(NS(C1=CC=C(CN(CCSC2=CC=CC=C2)CC3=CC=C(S(=O)(N)=O)C=C3)C=C1)(=O)=O)C4=CC=C(C5=NC=CC=C5)C=C4], the inhibition at 50 µM in experiment [1] is 93.6%. In addition, in experiment [2], the “Amplification coefficient 5TA x 38SZ” value came out at 12. Also, in experiment [3], the “Amplification coefficient 1TA x 1SZ” value was 5.
As to `COc1cccc(CN(CCSc2ccccc2)Cc2ccc(S(=O)(=O)NC(=O)Cn3c4ccccc4c4ccccc43)cc2)c1` [SZ17TA15, O=C(NS(C1=CC=C(CN(CC2=CC(OC)=CC=C2)CCSC3=CC=CC=C3)C=C1)(=O)=O)CN4C(C=CC=C5)=C5C6=C4C=CC=C6], the inhibition at 50 µM in experiment [1] was determined as 60.6%. Moreover, the “Amplification coefficient 5TA x 38SZ” value in experiment [2] came out at 13. Further, the “Amplification coefficient 1TA x 1SZ” value in experiment [3] turned out to be 4.
With `COc1cccc(CN(CCSc2ccccc2)Cc2ccc(S(=O)(=O)NC(=O)c3ccc(Cc4ccc(OC)c(OC)c4OC)cc3)cc2)c1` [SZ17TA24, O=C(NS(C1=CC=C(CN(CCSC2=CC=CC=C2)CC3=CC(OC)=CC=C3)C=C1)(=O)=O)C4=CC=C(CC5=CC=C(OC)C(OC)=C5OC)C=C4], the inhibition at 50 µM in experiment [1] amounted to 74.1%. Besides, the “Amplification coefficient 5TA x 38SZ” value in experiment [2] is on record as 9. In experiment [3], the “Amplification coefficient 1TA x 1SZ” value came out at 5.
As for `COc1cccc(CN(CCSc2ccccc2)Cc2ccc(S(=O)(=O)NC(=O)c3ccc(C(c4c[nH]c5ccccc45)c4c[nH]c5ccccc45)cc3)cc2)c1` [SZ17TA31, O=S(C1=CC=C(C=C1)CN(CCSC2=CC=CC=C2)CC3=CC=CC(OC)=C3)(NC(C(C=C4)=CC=C4C(C5=CNC6=C5C=CC=C6)C7=CNC8=C7C=CC=C8)=O)=O], in experiment [1], the inhibition at 50 µM worked out at 42.5%. In addition, in experiment [2], the “Amplification coefficient 5TA x 38SZ” value amounted to 21. The “Amplification coefficient 1TA x 1SZ” value in experiment [3] is given as 9.
Regarding `O=C(NS(=O)(=O)c1ccc(-c2ccc(Oc3ccccc3)cc2)cc1)c1cccc2ccccc12` [SZ35TA7, O=C(NS(C1=CC=C(C2=CC=C(OC3=CC=CC=C3)C=C2)C=C1)(=O)=O)C4=CC=CC5=C4C=CC=C5], the inhibition at 50 µM in experiment [1] amounted to 87.8%. Also, the “Amplification coefficient 5TA x 38SZ” value in experiment [2] is on record as 25. Besides, the “Amplification coefficient 1TA x 1SZ” value in experiment [3] is given as 4.
The like results for `COc1ccc(Cc2ccc(C(=O)NS(=O)(=O)c3ccc(CN(CCSc4ccccc4)Cc4c(F)cccc4Cl)cc3)cc2)c(OC)c1OC` [SZ15TA24, O=C(NS(C1=CC=C(CN(CCSC2=CC=CC=C2)CC3=C(F)C=CC=C3Cl)C=C1)(=O)=O)C4=CC=C(CC5=CC=C(OC)C(OC)=C5OC)C=C4] were, in that order, 70.8%, 20 and 15.
Regarding `Cn1cc(C(=O)C2CCCCC2)c2cc(C(=O)NS(=O)(=O)c3ccc(COc4ccc5c(=O)cc(-c6ccccc6)oc5c4)cc3)ccc21` [SZ14TA40, O=C(NS(C1=CC=C(COC2=CC=C(C(C=C(C3=CC=CC=C3)O4)=O)C4=C2)C=C1)(=O)=O)C5=CC=C6C(C(C(C7CCCCC7)=O)=CN6C)=C5], the inhibition at 50 µM in experiment [1] was found to be 93.1%. Moreover, the “Amplification coefficient 5TA x 38SZ” value in experiment [2] turned out to be 24. For the same compound, the “Amplification coefficient 1TA x 1SZ” value in experiment [3] amounted to 15.
Turning to `COc1cccc(CN(CCSc2ccccc2)Cc2ccc(S(=O)(=O)NC(=O)c3ccc(OC(F)(F)F)cc3)cc2)c1` [SZ17TA8, O=C(NS(C1=CC=C(CN(CCSC2=CC=CC=C2)CC3=CC(OC)=CC=C3)C=C1)(=O)=O)C4=CC=C(OC(F)(F)F)C=C4], in experiment [1], the IC50 is 8.4 µM and the inhibition at 50 µM is over 99%. Moreover, in experiment [2], the “Amplification coefficient 5TA x 38SZ” value turned out to be 8. Also, in experiment [3], the “Amplification coefficient 1TA x 1SZ” value amounted to 4.
Consider `O=C(NS(=O)(=O)c1ccc(CN(CCSc2ccccc2)Cc2ccc3c(c2)OCO3)cc1)c1ccc(-c2ccc(F)cc2)cc1` [SZ31TA14, O=C(NS(C1=CC=C(CN(CC2=CC(OCO3)=C3C=C2)CCSC4=CC=CC=C4)C=C1)(=O)=O)C5=CC=C(C6=CC=C(F)C=C6)C=C5], for which the inhibition at 50 µM in experiment [1] was determined as 59.5%. The “Amplification coefficient 5TA x 38SZ” value in experiment [2] stood at 10. In addition, in experiment [3], the “Amplification coefficient 1TA x 1SZ” value came to 4.
The like results for `COc1ccc(Cc2ccc(C(=O)NS(=O)(=O)c3ccc(-c4ccc(Oc5ccccc5)cc4)cc3)cc2)c(OC)c1OC` [SZ35TA24, O=C(NS(C1=CC=C(C2=CC=C(OC3=CC=CC=C3)C=C2)C=C1)(=O)=O)C4=CC=C(CC5=CC=C(OC)C(OC)=C5OC)C=C4] were, in that order, 76.4%, 9 and 8.
Regarding `NS(=O)(=O)c1ccc(CN(CCSc2ccccc2)Cc2ccc(S(=O)(=O)NC(=O)CC3Sc4ccccc4NC3=O)cc2)cc1` (centres unmarked) [SZ10TA34, O=C(NS(C1=CC=C(CN(CCSC2=CC=CC=C2)CC3=CC=C(S(=O)(N)=O)C=C3)C=C1)(=O)=O)CC4SC5=CC=CC=C5NC4=O], the inhibition at 50 µM in experiment [1] was 64.1%. Moreover, the “Amplification coefficient 5TA x 38SZ” value in experiment [2] is given as 7. Besides, the “Amplification coefficient 1TA x 1SZ” value in experiment [3] was found to be 6.
As for `O=C(NS(=O)(=O)c1ccc(CN(CCSc2ccccc2)Cc2c(F)cccc2Cl)cc1)c1ccc(-c2ccc(F)cc2)cc1` [SZ15TA14, O=C(NS(C1=CC=C(CN(CCSC2=CC=CC=C2)CC3=C(F)C=CC=C3Cl)C=C1)(=O)=O)C4=CC=C(C5=CC=C(F)C=C5)C=C4], in experiment [1], the inhibition at 50 µM came out at 58.8%. Further, the “Amplification coefficient 5TA x 38SZ” value in experiment [2] turned out to be 7. The “Amplification coefficient 1TA x 1SZ” value in experiment [3] is 6.
With `O=C(NS(=O)(=O)c1ccc(CN(CCSc2ccccc2)Cc2ccc3c(c2)OCO3)cc1)c1cccc(NCCc2ccccc2)c1` [SZ31TA44, O=C(NS(C1=CC=C(CN(CC2=CC(OCO3)=C3C=C2)CCSC4=CC=CC=C4)C=C1)(=O)=O)C5=CC(NCCC6=CC=CC=C6)=CC=C5], in experiment [1], the inhibition at 50 µM was determined as 36.5%. The “Amplification coefficient 5TA x 38SZ” value in experiment [2] is 10. Moreover, the “Amplification coefficient 1TA x 1SZ” value in experiment [3] is on record as 12.
For `Cn1cc(C(=O)c2cccs2)c2cc(C(=O)NS(=O)(=O)CCN(CCSc3ccccc3)Cc3ccc4c(c3)OCO4)ccc21` [SZ28TA45, O=C(NS(CCN(CC1=CC=C(OCO2)C2=C1)CCSC3=CC=CC=C3)(=O)=O)C4=CC(C(C(C5=CC=CS5)=O)=CN6C)=C6C=C4] the same measures were 54%, 8 and 5.
